Here are results for 21 compounds from patent US20060247260A1, “Bis (hetero) aryl carboxamide derivatives for use as PG12 antagonists” (BAYER HEALTHCARE AG, priority 2003, published 2006).

T1 sequence (P43119 whole entry): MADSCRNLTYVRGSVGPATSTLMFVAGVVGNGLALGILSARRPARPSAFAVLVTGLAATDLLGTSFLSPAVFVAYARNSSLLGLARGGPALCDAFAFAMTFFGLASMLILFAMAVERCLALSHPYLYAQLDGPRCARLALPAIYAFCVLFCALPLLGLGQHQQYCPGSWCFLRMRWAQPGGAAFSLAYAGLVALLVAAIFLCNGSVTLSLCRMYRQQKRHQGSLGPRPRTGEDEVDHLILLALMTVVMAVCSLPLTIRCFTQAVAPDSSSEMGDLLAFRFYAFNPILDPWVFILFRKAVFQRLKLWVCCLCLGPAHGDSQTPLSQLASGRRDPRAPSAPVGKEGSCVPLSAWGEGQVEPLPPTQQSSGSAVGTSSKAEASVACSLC

This test has as its target T1, PGI2 receptor (Homo sapiens, UniProt P43119).
T1 construct: host or cells: HEL 92.1.7 human erythroleukemia cells (whole cells)
Nature of the test: PGI2 receptor binding/cAMP in HEL cells (in vitro activity grade). Conditions: compounds of purity about 40 to 90%. How it is done:
[Measurement of the [^3H]-Iloprost Binding to HEL Cells] (Assay 1) A human erythloleukemia cell line, HEL 92.1.7, was purchased from American Type Culture Correction and maintained in RPMI-1640 medium (Gibco BRL) supplemented with 10% fetal calf serum (FCS), 2 mM glutamine, 4.5 g/L glucose, 10 mM Hepes, 1 mM sodium pyruvate, 100 U/ml penicillin, and 100 μg/ml streptomycin in a humidified 5% CO2 atmosphere at 37° C. Cells were collected with centrifugation and washed with binding assay buffer (BAB: 50 mM Tris-HCl, 5 mM MgCl2 (pH 7.5)). Cells were suspended at the density of 6.25×10^6 cells/ml in BAB, and one million cells in 160 μl aliquot of cell suspension were put in a well of 96 well plate (Falcon). Then, 20 μl of compound solution, 100 μM of iloprost (for non-specific binding), or buffer alone (total binding), diluted with 1% DMSO in BAB was added. Finally, another 20 μl containing [^3H]-iloprost (0.02 μCi, 0.5-1 pmol) in BAB was added and incubated at room temperature for 30 min with a gentle shaking. Cell suspension was then transferred to a well of MultiScreen plate with GF/C glass filters (Millipore) to harvest cells. Cells were washed twice with 200 μl of ice-cold BAB and the plate was kept at 55° C. for 30 min to dry filters. The filter in the well was punched out to a counting tube and 2 ml of Ultima Gold XR Packard) was added. [^3H]-radio activity in the filter was measured by a liquid scintillation counter (Beckman, USA). [Iloprost-Induced cAMP Production Assay in HEL Cells] (Assay 2) HEL cells were collected with centrifugation and washed with cAMP assay buffer (CAB: Hank's balanced salt solution, 17 mM Hepes, 0.1% bovine serum albumin, 1 mM IBMX, 0.4% DMSO, and 1 mM L-ascorbic acid sodium salt (pH 7.4)). Cells were suspended at the density of 2.5×10^5 cells/ml in CAB, and twenty thousand cells in 80 μl aliquot of cell suspension were put in a well of 96 well plate (Falcon). Then, 10 μl of compound solution diluted with 1% DMSO in CAB or buffer alone was added. The plate was incubated at 37° C. for 30 min. Then, another 10 μl containing 100 nM iloprost in CAB or buffer alone was added and further incubated at 37° C. for 30 min. cAMP content in the well was measured by, a cAMP ELISA kit (Applied Biosystems, USA). The data corresponds to the compounds as yielded by solid phase synthesis and thus to levels of purity of about 40 to 90%. For practical reasons, the compounds are grouped in three classes of activity as follows: In vitro activity grade=A≦0.1 μM<B≦1 μM<C
As for `O=C(NC(Cc1ccccc1)C(=O)O)c1cc(-c2ccc(OCc3ccccc3)cc2)on1` (stereo not drawn) [Example 1-2, 2-{[5-(4-Benzyloxyphenyl)isoxazole-3-carbonyl]amino}-3-phenyl-propionic acid], the “In vitro activity grade” value is given as “A (A≦0.1 μM)”.
The same measure for `O=C(NC(Cc1ccccc1)C(=O)O)c1ccc(-c2ccc(OCc3ccccc3)cc2)cc1` (stereo not drawn) [Example 3-1, 2-[(4′-Benzyloxy-biphenyl-4-carbonyl)-amino]-3-phenyl-propionic acid]: “A (A≦0.1 μM)”; for `O=C(NC(Cc1ccccc1)C(=O)O)c1ccc(-c2ccc(OCc3ccccc3)cc2)nc1` (stereo not drawn) [Example 4-1, 2-{[6-(4-benzyloxy-phenyl)-pyridine-3-carbonyl]-amino}-3-phenyl-propionic acid]: “A (A≦0.1 μM)”; for `O=C(NC(Cc1ccccc1)C(=O)O)c1ccc(-c2cnc(OCc3ccccc3)nc2)cc1` (stereo not drawn) [Example 5-1, 2-[4-(2-Benzyloxypyrimidin-5-yl)benzoylamino]-3-phenylpropionic acid]: “A (A≦0.1 μM)”.
With `Cc1cccc(COc2ccc(-c3ccc(C(=O)NC(Cc4ccccc4)C(=O)O)cc3)cc2)c1` (stereo not drawn) [Example 8-1, 2-{[4′-(3-Methylbenzyloxy)biphenyl-4-carbonyl]amino}-3-phenylpropionic acid], the “In vitro activity grade” value is reported as “A (A≦0.1 μM)”.
The same measure for `O=C(NC(Cc1ccccc1)C(=O)O)c1ccc(-c2ccc(OCc3ccc([N+](=O)[O-])cc3)cc2)cc1` (stereo not drawn) [Example 8-2]: “B (0.1 μM<B≦1 μM)”; for `O=C(NC(Cc1ccccc1)C(=O)O)c1ccc(-c2ccc(OCc3ccccc3F)cc2)cc1` (stereo not drawn) [Example 8-3]: “A (A≦0.1 μM)”.
With `O=C(NC(Cc1ccccc1)C(=O)O)c1ccc(-c2ccc(OCc3cccc(F)c3)cc2)cc1` (stereo not drawn) [Example 8-4], the “In vitro activity grade” value is given as “A (A≦0.1 μM)”.
The value for `O=C(NC(Cc1ccccc1)C(=O)O)c1ccc(-c2ccc(OCc3ccc(F)cc3)cc2)cc1` (stereo not drawn) [Example 8-5] was “A (A≦0.1 μM)”; that for `O=C(NC(Cc1ccccc1)C(=O)O)c1ccc(-c2ccc(OCc3ccc(F)c(F)c3)cc2)cc1` (stereo not drawn) [Example 8-6] was “A (A≦0.1 μM)”; that for `O=C(NC(Cc1ccccc1)C(=O)O)c1ccc(-c2ccc(OCc3c(Cl)cccc3Cl)cc2)cc1` (stereo not drawn) [Example 8-7] was “A (A≦0.1 μM)”.
The value for `O=C(NC(Cc1ccccc1)C(=O)O)c1ccc(-c2ccc(OCc3cc(Cl)cc(Cl)c3)cc2)cc1` (stereo not drawn) [Example 8-8] was “C (1 μM<C)”; that for `O=C(NC(Cc1ccccc1)C(=O)O)c1ccc(-c2ccc(OCc3ccc(Cl)cc3Cl)cc2)cc1` (stereo not drawn) [Example 8-9] was “C (1 μM<C)”; that for `O=C(NC(Cc1ccccc1)C(=O)O)c1ccc(-c2ccc(OCc3ccc(Cl)c(Cl)c3)cc2)cc1` (stereo not drawn) [Example 8-10] was “B (0.1 μM<B≦1 μM)”.
The value for `O=C(NC(Cc1ccccc1)C(=O)O)c1ccc(-c2ccc(OCc3cccc(Cl)c3Cl)cc2)cc1` (stereo not drawn) [Example 8-11] was “A (A≦0.1 μM)”; that for `O=C(NC(Cc1ccccc1)C(=O)O)c1ccc(-c2ccc(OCc3c(F)cccc3F)cc2)cc1` (stereo not drawn) [Example 8-12] was “B (0.1 μM<B≦1 μM)”.
With `COc1ccccc1COc1ccc(-c2ccc(C(=O)NC(Cc3ccccc3)C(=O)O)cc2)cc1` (stereo not drawn) [Example 8-13], the “In vitro activity grade” value is “B (0.1 μM<B≦1 μM)”.
`COc1cccc(COc2ccc(-c3ccc(C(=O)NC(Cc4ccccc4)C(=O)O)cc3)cc2)c1` (stereo not drawn) [Example 8-14]: the “In vitro activity grade” value is given as “A (A≦0.1 μM)”.
Take `COc1ccc(COc2ccc(-c3ccc(C(=O)NC(Cc4ccccc4)C(=O)O)cc3)cc2)cc1` (stereo not drawn) [Example 8-15]: the “In vitro activity grade” value is “B (0.1 μM<B≦1 μM)”.
The same measure for `COc1cc(COc2ccc(-c3ccc(C(=O)NC(Cc4ccccc4)C(=O)O)cc3)cc2)cc(OC)c1OC` (stereo not drawn) [Example 8-16]: “C (1 μM<C)”; for `O=C(NC(Cc1ccccc1)C(=O)O)c1ccc(-c2ccc(OCc3ccccc3Cl)cc2)cc1` (stereo not drawn) [Example 8-17]: “A (A≦0.1 μM)”.
